In US11426441B2, “Composition comprising protein phosphatase 1 inhibitory peptide for treating vascular diseases” (BethphaGen Inc., priority 2016, dated 2022):
No end group written: not given here.

Assays:
[1] = tested on: PLB; assay: PLB phosphorylation in RASMCs (western blotting); format: cell-based, rat
Procedure: FIG. 7. ψPLB-SE attenuates PLB dephosphorylation in VSMCs. The proteins samples shown in FIG. 2C were subjected to western blotting. Antibodies against PLB or phospho-PLB were used. Data are expressed as the means±SD (n=3-4; *, P<0.05).
Vascular smooth muscle cells (VSMCs) were homogenized in a minimal volume of 50 mM Tris-HCl, pH 7.4, supplemented with a broad-spectrum protease inhibitor cocktail (Calbiochem). The proteins were separated by SDS-PAGE and then transferred to polyvinylidene fluoride membranes (Schleicher & Schuell). After blocking with 5% (w/v) non-fat milk for 1 hour and washing with TBST, the membranes were incubated with antibodies against SERCA2a, SERCA2b (21st century biochemical), PCNA (abcam), GAPDH (Sigma-Aldrich), phospho-eNOS, eNOS, phospho-eIF2α, eIF2α (cell signaling), Vimentin, α-SMA, BMPR2 (Santa cruz), phospho-Akt, Akt (cell signaling), phospho-phospholamban (Merck), and Phospholamban (cell signaling). The membranes were then incubated with horseradish peroxidase-conjugated secondary antibodies (Jackson ImmunoResearch, West Grove, Pa., USA) and developed using a chemiluminescent substrate (Dogen). The blots were scanned and quantified using LAS software.

[2] = tested on: cytosolic Ca^2+ level; assay: Intracellular Ca2+ measurement in HCSMCs; format: cell-based, human; conditions: HCSMCs pretreated 1 hour with 3 μM ψPLB-SE or 15 μM MDL28170, then 50 μM A23187 2 hours
Procedure: FIGS. 4a, 4b, 4c and 4d. (4a-4c) HCSMCs were pretreated with 3 μM ψPLB-SE and 15 μM MDL28170 for 1 hour, and then treated with 50 μM A23187 for 2 hours. (4a) Immunostaining was performed with antibodies against SERCA2a and SERCA2b (green). Nuclei were stained with Hoechst (blue). Representative merged images are shown. Scale bar, 50 μm. (4b) Western blot analysis was performed with cell extracts. Data are expressed as the means±SD (n=3-4; *, P<0.05). (4c) Baseline Ca^2+ concentration was measured by lonOptix calcium imaging system. (4d) RASMC were treated with ψPLB-SE or control peptide under the same conditions as described for FIG. 1B. The baseline Ca^2+ concentration was measured by lonOptix calcium imaging system (*, P<0.05).
The intracellular Ca^2+ level was measured in VSMCs by loading cells with 0.5 μM Fura2-AM (Molecular Probes, Eugene Oreg., USA), a Ca^2+-sensitive indicator, for 15 minutes at 37. The fluorescence was recorded using the lonOptix calcium imaging system. VSMCs were stimulated by the exposure to light emitted by a 75 W halogen lamp through either a 340 nm or 380 nm filter. The fluorescent emissions were detected between 480 nm and 520 nm by a photomultiplier tube after an initial illumination at 340 nm for 0.5 second and then at 380 nm during recording. The 340 nm excitation scan was repeated at the end of the protocol, and qualitative changes in the intracellular Ca^2+ level were inferred from the ratio of the Fura2 fluorescent intensity at both wavelengths.

Sequence: RAETIEMPQ (not fully specified) [ψPLB-SE, 9-mer PP1 decoy peptide mimicking phosphorylated PLB; conjugated via GGG linker to cell penetrating peptide dNP2 or TAT]
- dephosphorylation of PLB [1]: inhibited
- elevation of the cytosolic Ca^2+ level by A23187 [2]: normalized
